Where a name gives a salt, the structure may show the parent alone. Read-outs that look alike come from different tables or passages of the source.
What was measured:
[1] = test system: anaesthetized dog; test: Antiangorous activity on anaesthetized dog: consumption of oxygen in the left ventricule and cardiac effort (KATZ's index); format: in vivo; settings: for inhibition in vivo at […]: 0.15 mg/kg i.v. slow perfusion
Experimental: The antiangorous activity was tested on an anaesthetized dog (sodium pentobarbital 30 mg/kg/i.v.).
The consumption of oxygen in the left ventricule was estimated by the product of the coronary venous flow and the coronary arteriovenous difference in oxygen (% volume).
The coronary venous flow was measured at the coronary venous sinus by means of a modified Morawitz cannula, introduced under radioscopic control.
The cardiac effort was estimated according to KATZ's index, by the product of the average arterial pressure and the cardiac frequency.
The cardiac frequency was estimated from the electrocardiogram recorded with D2 derivation.
It should be noted that the compounds tested were injected intravenously with slow perfusion.

[2] = in vivo; settings: for LD50: read-out: Toxicity: LD50; for mortality: read-out: Toxicity (Mortality)
Source text: *LD50 or percentage of mortality which is given between brackets

[3] = Canis lupus familiaris, iv, read-out: Diminution in consumption of O2
[4] = Canis lupus familiaris, iv, read-out: Diminution in the cardiac effort (IK)
[5] = Canis lupus familiaris, iv, 0.14 mg/kg i.v. slow perfusion, read-out: Diminution in consumption of O2
[6] = Canis lupus familiaris, iv, 0.14 mg/kg i.v. slow perfusion, read-out: Diminution in the cardiac effort (IK)
[7] = Canis lupus familiaris, iv, 2.5 mg/kg i.v. slow perfusion, read-out: Diminution in consumption of O2
[8] = 0.625 mg/kg i.v. slow perfusion

COc1cc(C(C)=O)ccc1OCC(O)CN1CCN(C(=O)/C=C/c2cc(OC)c(OC)c(OC)c2)CC1 (stereo not drawn) [770 073]
Diminution in consumption of O2: in time ([1]; 0.12 mg/kg i.v. slow perfusion): 30 min | Diminution in the cardiac effort (IK): in time ([1]; 0.12 mg/kg i.v. slow perfusion): 15 min | inhibition in vivo at 0.12 mg/kg ([1]; Canis lupus familiaris, iv, 0.12 mg/kg i.v. slow perfusion, read-out: Diminution in consumption of O2): 24% | inhibition in vivo at 0.12 mg/kg ([1]; Canis lupus familiaris, iv, 0.12 mg/kg i.v. slow perfusion, read-out: Diminution in the cardiac effort (IK)): 16% | LD50 ([2]; iv): 158 mg/kg

CNC(=O)Nc1ccc(OCC(O)CN2CCN(C(=O)/C=C/c3cc(OC)c(OC)c(OC)c3)CC2)c2c1OCCO2 (stereo not drawn) [770 077]
inhibition in vivo at […] [1, 3]: 44% | inhibition in vivo at […] [1, 4]: 28% | mortality ([2]; iv, 400 mg/kg i.v.): 0%

COc1cc(/C=C/C(=O)N2CCN(CC(O)COc3ccc(NC(=O)NC4CCCCC4)c4c3OCCO4)CC2)cc(OC)c1OC (stereo not drawn) [770 081]
Diminution in consumption of O2: in time ([1]; 0.14 mg/kg i.v. slow perfusion): 53 min | Diminution in the cardiac effort (IK): in time ([1]; 0.14 mg/kg i.v. slow perfusion): 15 min | inhibition in vivo at 0.14 mg/kg [1, 5]: 58% | inhibition in vivo at 0.14 mg/kg [1, 6]: 20% | LD50 ([2]; iv): 148 mg/kg

COc1cc(/C=C/C(=O)N2CCN(CC(O)COc3ccc(NC(=O)Nc4ccccc4)c4c3OCCO4)CC2)cc(OC)c1OC (stereo not drawn) [770 085]
inhibition in vivo at […] [1, 3]: 44% | inhibition in vivo at […] [1, 4]: 14% | mortality ([2]; po, p.o.: 1855 mg/kg): 0%

COc1cccc(SCC(O)CN2CCN(C(=O)/C=C/c3cc(OC)c(OC)c(OC)c3)CC2)c1 (stereo not drawn) [770 112]
Diminution in consumption of O2: in time ([1]; 2.3 mg/kg i.v. slow perfusion): 23 min | Diminution in the cardiac effort (IK): in time ([1]; 2.3 mg/kg i.v. slow perfusion): 15 min | inhibition in vivo at 2.3 mg/kg ([1]; Canis lupus familiaris, iv, 2.3 mg/kg i.v. slow perfusion, read-out: Diminution in consumption of O2): 34% | inhibition in vivo at 2.3 mg/kg ([1]; Canis lupus familiaris, iv, 2.3 mg/kg i.v. slow perfusion, read-out: Diminution in the cardiac effort (IK)): 7% | LD50 ([2]; iv): 224 mg/kg

CNC(=O)c1ccc(OCC(O)CN2CCN(C(=O)/C=C/c3cc(OC)c(OC)c(OC)c3)CC2)cc1 (stereo not drawn) [770 135]
Diminution in consumption of O2: in time ([1]; 1.25 mg/kg i.v. slow perfusion): 30 min | Diminution in the cardiac effort (IK): in time ([1]; 1.25 mg/kg i.v. slow perfusion): 30 min | inhibition in vivo at 1.25 mg/kg ([1]; Canis lupus familiaris, iv, 1.25 mg/kg i.v. slow perfusion, read-out: Diminution in consumption of O2): 40% | inhibition in vivo at 1.25 mg/kg ([1]; Canis lupus familiaris, iv, 1.25 mg/kg i.v. slow perfusion, read-out: Diminution in the cardiac effort (IK)): 28% | mortality ([2]; iv, 400 mg/kg i.v.): 0%

CCc1ccc(OCC(O)CN2CCN(C(=O)/C=C/c3cc(OC)c(OC)c(OC)c3)CC2)c2c1OCCO2 (stereo not drawn) [770 142]
Diminution in consumption of O2: in time ([1]; 1.1 mg/kg i.v. slow perfusion): 30 min | inhibition in vivo at 1.1 mg/kg ([1]; Canis lupus familiaris, iv, 1.1 mg/kg i.v. slow perfusion, read-out: Diminution in consumption of O2): 29% | LD50 ([2]; iv): 116 mg/kg

CC(=O)c1ccc(OCC(O)CN2CCN(C(=O)/C=C/c3ccc(F)cc3)CC2)c2c1OCCO2 (stereo not drawn) [770 199]
Diminution in consumption of O2: in time ([1]; 1.02 mg/kg i.v. slow perfusion): 15 min | Diminution in the cardiac effort (IK): in time ([1]; 1.02 mg/kg i.v. slow perfusion): 15 min | inhibition in vivo at 1.02 mg/kg ([1]; Canis lupus familiaris, iv, 1.02 mg/kg i.v. slow perfusion, read-out: Diminution in consumption of O2): 29% | inhibition in vivo at 1.02 mg/kg ([1]; Canis lupus familiaris, iv, 1.02 mg/kg i.v. slow perfusion, read-out: Diminution in the cardiac effort (IK)): 5% | LD50 ([2]; iv): 328 mg/kg

COc1cc(/C=C/C(=O)N2CCN(CC(O)COc3ccc(C(C)=O)c4c3OCCO4)CC2)cc(OC)c1O (stereo not drawn) [770 274, 1-[3-(4-acetyl-2,3-ethylenedioxy)phenoxy-2-hydroxy]propyl-4-(3,5-dimethoxy-4-hydroxycinnamoyl)piperazine oxalate]
Diminution in consumption of O2: in time ([1]; 2.5 mg/kg i.v. slow perfusion): 30 min | Diminution in the cardiac effort (IK): in time ([1]; 2.5 mg/kg i.v. slow perfusion): 15 min | inhibition in vivo at 2.5 mg/kg [1, 7]: 41% | inhibition in vivo at 2.5 mg/kg ([1]; Canis lupus familiaris, iv, 2.5 mg/kg i.v. slow perfusion, read-out: Diminution in the cardiac effort (IK)): 10% | mortality ([2]; iv, 336 mg/kg i.v.): 30%

COc1cc(/C=C/C(=O)N2CCN(CC(O)COCc3ccccc3)CC2)cc(OC)c1OC (stereo not drawn) [770 276]
Diminution in consumption of O2: in time ([1]; 2.5 mg/kg i.v. slow perfusion): 23 min | inhibition in vivo at 2.5 mg/kg [1, 7]: 59% | LD50 ([2]; iv): 248 mg/kg

CCNC(=O)Nc1ccc(OCC(O)CN2CCN(C(=O)/C=C/c3cc(OC)c(OC)c(OC)c3)CC2)c2c1OCCO2 (stereo not drawn) [770 307]
inhibition in vivo at […] [1, 3]: 43% | inhibition in vivo at […] [1, 4]: 11% | mortality ([2]; iv, 367 mg/kg i.v.): 10%

CCOC(=O)Cc1ccc(OCC(O)CN2CCN(C(=O)/C=C/c3cc(OC)c(OC)c(OC)c3)CC2)c2c1OCCO2 (stereo not drawn) [770 312]
Diminution in consumption of O2: in time ([1]; 0.14 mg/kg i.v. slow perfusion): 30 min | inhibition in vivo at 0.14 mg/kg [1, 5]: 30% | inhibition in vivo at 0.14 mg/kg [1, 6]: 9% | LD50 ([2]; iv): 259 mg/kg

CNC(=O)Cc1ccc(OCC(O)CN2CCN(C(=O)/C=C/c3cc(OC)c(OC)c(OC)c3)CC2)c2c1OCCO2 (stereo not drawn) [770 382]
Diminution in consumption of O2: in time [1, 8]: 15 min | Diminution in the cardiac effort (IK): in time [1, 8]: 15 min | inhibition in vivo at 0.625 mg/kg ([1]; Canis lupus familiaris, iv, 0.625 mg/kg i.v. slow perfusion, read-out: Diminution in consumption of O2): 36% | inhibition in vivo at 0.625 mg/kg ([1]; Canis lupus familiaris, iv, 0.625 mg/kg i.v. slow perfusion, read-out: Diminution in the cardiac effort (IK)): 16% | mortality ([2]; iv, 400 mg/kg i.v.): 30%

— patent US4178442A, “Novel cinnamoyles piperazines and homopiperazines, the method of preparing them and their application in therapeutics” (Delalande S. A., priority 1977, dated 1979)
